Results on eleven compounds are retold here after patent US8536160B2, “Azaheterocyclyl derivatives of androstanes and androstenes as medicaments for cardiovascular disorders” (priority 2006, dated 2013).

The target of data set [1] is Dog Kidney Na+, K+-ATPase (Canis lupus familiaris, UniProt P50997). Put plainly: Inhibition of the enzymatic activity of purified Na+,K+-ATPase (hydrolysis of 32P-ATP). The class given is biochemical.
A further data set concerns fresh rat hepatocytes. Put plainly: Metabolism in fresh rat hepatocytes. Conditions: for % of compound metabolized after 60 minutes: test item nominal concentration 45 μM, 2590000-3084000 hepatocytes/ml.
For data set [2], the system named is hypertensive ouabain-sensitive rats (OS rats). Put plainly: Systolic blood pressure fall in hypertensive ouabain-sensitive rats (OS rats). The settings on record: 10 μg/kg/day by mouth for four weeks. The class given is in vivo, rat. The method, then:
The ability of these compounds to lower blood pressure was tested by using an animal model with induced hypertension, in particular, rats made hypertensive by chronic infusion of ouabain, according to Ferrari P., et al. J. Pharm. Exp. Ther. 1998, 285, 83-94.
The procedure adopted to test the antihypertensive activity of the compounds on the above mentioned model was the following: systolic blood pressure (SBP) and heart rate (HR) were measured by an indirect tailcuff method. The blood pressure lowering effect was measured in hypertensive ouabain-sensitive rats. The compound, suspended in Methocel 0.5% (w/v), was administered daily at the dose of 10 μg/kg/day by mouth for four weeks. SBP and HR were measured weekly 6 hours after the treatment. The comparison are ouabain sensitive rats (OS rats) and non hypertensive rats (control), both treated only with Methocel 0.5% (w/v). As shown in the following Table 4, treatment with a compound of the present invention lowers the blood pressure of OS rats (170 mm Hg) to almost the level of control rats (150 mm Hg).

The subject of a further data set is anesthetized guinea-pig. Put plainly: Inotropic effect and lethal dose, slow intravenous infusion in anesthetized guinea-pig. The data set is classed as in vivo. Further details: Maximum dose infused: unit not given here. Conditions: for Emax / ED80 / ED (max): Cavia porcellus, iv, 1.5 h; for Emax / ED80 / ED (max) / Dead/treated / Maximum dose infused: slow i.v. infusion over 90 minutes; for Emax: maximum increase in contractile force, read-out: Emax % increase in +dP/dTmax; for ED80: read-out: ED80 (inotropic potency, dose increasing +dP/dTmax by 80%); for ED (max): read-out: EDmax (dose inducing maximum positive inotropic effect); for % decrease from Emax after 20 min from the end of the infusion: duration of the inotropic effect; for Maximum dose infused: maximum dose infused in the survived animals.

[3] abbreviates: read-out: Na+, K+-ATPase Inhibition IC50.

Where a name gives a salt, the structure may show the parent alone. Read-outs that look alike come from different tables or passages of the source.

Description for anesthetized guinea-pig: The inotropic activity is shown as maximum increase in contractile force (Emax measured as +dP/dTmax), dose inducing maximum positive inotropic effect (EDmax), inotropic potency (ED80, dose increasing +dP/dTmax by 80%); the toxicity, as the ratio between lethal dose and inotropic potency, or safety ratio, (calculated for the died animals); the maximum dose infused in the survived animals; the duration of the inotropic effect as the decrease of the effect from the EDmax measured 20 minutes after the end of the infusion.

For the compound `CC12CCC3C(C(O)C(CO)C4CC(=NOC5CCNC5)CCC43C)C1CCC2=O` (single isomer, unassigned) [I-dk, hydrochloride], half-maximal inhibition in data set [1] (Na+, K+-ATPase Inhibition IC50) (IC50) required 5.8 nM. The “% of compound metabolized after 60 minutes” value (shortened to “% of compound metabolized”) in the data set with fresh rat hepatocytes is recorded as 5%.

As to `CON=C1CC2C3CCC(=O)C3(C)CCC2C2(C)CCC(=NOC3CCNC3)CC12` (single isomer, unassigned) [I-be], the concentration for half-maximal inhibition (IC50) in data set [1] (Na+, K+-ATPase Inhibition IC50) was 260 nM. For the same compound, in the data set on fresh rat hepatocytes, the “% of compound metabolized” value stood at 42%.

With `C=C1C[C@@H]2[C@H](CC[C@]3(C)C(=O)CC[C@@H]23)[C@@]2(C)CC[C@@H](SC3CCNC3)CC12.O=C(O)/C=C/C(=O)O` (mixture of isomers) [I-db, 3α-[3-(RS)-Pyrrolidinylthio]-6-methyleneandrostane-17-one fumarate], the IC50 in data set [1] (setting [3]) turned out to be 20000 nM. Besides, in data set [2], the HR beats/min. is 387 beats/min. Besides, the HR % beats/min entry in data set [2] (change versus OS rats on vehicle) is “+6.6%”. Besides, the “SBP mmHg” value in data set [2] (measured 6 hours after treatment, tail-cuff) was determined as 153.0 mmHg. In addition, in data set [2] (versus OS rats on vehicle), the SBP - % was 10.3% and the “SBP - mmHg (fall)” value was 17.0 mmHg. In addition, the “% of compound metabolized” value in the data set with fresh rat hepatocytes came out at 25%.

In data set [1] (Na+, K+-ATPase Inhibition IC50), `CC12CCC3C(CC(O)C4CC(=NOC5CCNC5)CCC43C)C1CCC2=O` (single isomer, unassigned) [I-an, hydrochloride] gave an IC50 of 580 nM. For the same compound, the “% of compound metabolized” value in the data set on fresh rat hepatocytes is 21%.

Consider `C=C1CC2C/C(=N/O[C@@H]3CCNC3)CC[C@]2(C)[C@H]2CC[C@]3(C)C(=O)CC[C@H]3[C@H]12.Cl` (stereo partly drawn) [I-cg, (E,Z) 3-[3′-(R)-Pyrrolidinyl]oxyimino-7-methyleneandrostane-17-one hydrochloride], for which the half-maximal inhibitory concentration (IC50) in data set [1] (setting [3]) worked out at 240 nM. For the same compound, in the data set on fresh rat hepatocytes, the “% of compound metabolized” value is 28%.

In turn, `CC12CCC3C(C(=O)C(CO)C4CC(=NOC5CCNC5)CCC43C)C1CCC2=O` (mixture of isomers) [I-cs, (E,Z) 3-[3′-(R)-Pyrrolidinyl]oxyimino-6α-hydroxymethylandrostane-7,17-dione fumarate] displayed a half-maximal inhibitory concentration (IC50) in data set [1] (Na+, K+-ATPase Inhibition IC50, dog kidney enzyme, hydrolysis of 32P-ATP in presence and absence of compound) of 13 nM. Besides, the “% of compound metabolized” value in the data set on fresh rat hepatocytes was found to be 5%.

Turning to `C[C@]12CCC(=NOCCN)CC1C(=O)C[C@@H]1[C@@H]2CC[C@]2(C)C(=O)CC[C@@H]12.Cl` (mixture of isomers) [compd 22b, (EZ) 3-(2-aminoethoxyimino)androstane-6,17-dione hydrochloride, reference compound], in the data set on anesthetized guinea-pig (anesthetized guinea-pig), the Emax came out at 182%, the ED80 amounted to 1.82 µmol/kg, the ED (max) is 5.74 µmol/kg and the “% decrease from Emax after 20 min from the end of the infusion” value (“% decrease from Emax after 20 min” for short) came to 100%. Further, the Dead/treated in the data set on anesthetized guinea-pig (anesthetized guinea-pig) is listed as 7/8. For the same compound, the “Lethal dose/ED80 (safety ratio)” value in the data set on anesthetized guinea-pig (calculated for the died animals, anesthetized guinea-pig) is recorded as 22.6. Besides, in the data set with anesthetized guinea-pig, the Maximum dose infused is listed as 32.1. Further, the “metabolism in fresh rat hepatocytes within 60 minutes (in words)” value in the data set with fresh rat hepatocytes (45 μM) is “almost completely metabolized”. In addition, in the data set on fresh rat hepatocytes, the “% of compound metabolized” value came out at 95%.

As to `C[C@]12CC[C@H]3[C@@H](C/C(=N\O)[C@@]4(O)CC(=NO[C@@H]5CCNC5)CC[C@]34C)[C@@H]1CCC2=O` (mixture of isomers) [I-bp, (E,Z) 3-[3-(R)-Pyrrolidinyl]oxyimino-5α-hydroxy-6-(E)-hydroxyiminoandrostane-17-one hydrochloride], in the data set with anesthetized guinea-pig (anesthetized guinea-pig), the Emax is 226%, the ED80 worked out at 0.37 µmol/kg, the ED (max) is 1.8 µmol/kg and the “% decrease from Emax after 20 min” value turned out to be 100%. The Maximum dose infused in the data set with anesthetized guinea-pig is 4.3. For the same compound, in the data set on fresh rat hepatocytes, the “% of compound metabolized” value is 8%.

`CON=C1CC2C3CCC(=O)C3(C)CCC2C2(C)CCC(=NOC3CCNC3)CC12O` (single isomer, unassigned) [I-bw]: in data set [1] (dog kidney enzyme, hydrolysis of 32P-ATP in presence and absence of compound, read-out: Na+, K+-ATPase Inhibition IC50), the 50% inhibitory concentration (IC50) turned out to be 39 nM. Also, the “% of compound metabolized” value with fresh rat hepatocytes is given as 24%.

Consider `C[C@]12CC[C@H]3[C@@H](CC[C@@]4(O)CC(=NO[C@@H]5CCNC5)CC[C@]34C)[C@@H]1CCC2=O` (mixture of isomers) [I-am, (E,Z) 3-(3-(R)-Pyrrolidinyl)oxyimino-5α-hydroxyandrostane-17-one hemifumarate], for which the IC50 in data set [1] (Na+, K+-ATPase Inhibition IC50) worked out at 210 nM. For the same compound, in the data set with anesthetized guinea-pig (anesthetized guinea-pig), the Emax amounted to 221%, the ED80 was found to be 3.87 µmol/kg, the ED (max) stood at 15.3 µmol/kg and the “% decrease from Emax after 20 min” value worked out at 100%. Further, in the data set on anesthetized guinea-pig (anesthetized guinea-pig), the Dead/treated is on record as 0/3. Besides, the Maximum dose infused with anesthetized guinea-pig was found to be 25.2. In addition, the “% of compound metabolized” value in the data set with fresh rat hepatocytes turned out to be 12%.

In data set [1] (Na+, K+-ATPase Inhibition IC50), `CC12CCC3C(C(O)CC4CC(=NOC5CCNC5)CCC43C)C1CCC2=O` (mixture of isomers) [I-cj, (E,Z) 3-[3′-(R)-Pyrrolidinyl]oxyimino-7α-hydroxyandrostane-17-one fumarate] had an IC50 of 220 nM. In addition, the “% of compound metabolized” value in the data set on fresh rat hepatocytes turned out to be 20%.

For orientation: IC50 means the midpoint of a concentration-inhibition curve.
